{
  "source": "patent US11931335B2",
  "about": "“Enhancing autophagy or increasing longevity by administration of urolithins or precursors thereof” (Amazentis SA, priority 2012, dated 2024)",
  "key": {"[1]": {"tested_on": "daf-2(e1370) mutant C. elegans", "assay_type": "in vivo", "description": "(§1) Lifespan assays were performed with (A) wild-type (N2), (B) sir-2.1(ok434) mutant, (C) aak-2(ok524), (D) daf-16(mu86), (E) eat-2(ad465) and (F) daf-2(e1370) mutant strains of C. elegans maintained during their full life on plates supplemented with either 50 μM of urolithin A or with a control treatment and seeded with OP50 bacteria. Control plates without urolithin A contained an equivalent concentration of DMSO. Worm lifespan assays were performed at 20° C.\ndaf-2 encodes for the insulin-like growth factor 1 (IGF-1) receptor in C. elegans."}, "[2]": {"tested_on": "C. elegans wild-type Bristol N2", "assay": "Oxygen consumption (Seahorse XF24) in aged C. elegans", "assay_type": "in vivo", "method": "C. elegans strains were cultured at 20° C. on nematode growth media (NGM) agar plates seeded with E. coli strain OP50. Strain used was wild-type Bristol N2 provided by the Caenorhabditis Genetics Center (University of Minnesota). Urolithin A was dissolved in DMSO. Animals were exposed to compounds from eggs on plates seeded with live OP50 bacteria. Control plates were prepared with the corresponding concentration of DMSO (0.1%).\nThe effect of urolithin A on mitochondrial activity in aged C. elegans (10 days old) was assessed by treating C. elegans with urolithin A for 10 days of adulthood, at which time oxygen consumption was measured using the Seahorse XF24 equipment (Seahorse Bioscience Inc., North Billerica, MA). […] Worms were transferred into 24-well standard Seahorse plates (#100777-004) (50 worms per well) and oxygen consumption was measured. The basal oxygen consumption of the worms was first measured over 30 minutes at 5-minute intervals (0 min, 5 min, 15 min, 20 min, 25 min, and 30 min) with 5 replicates per interval. Respiration rates were normalized to the exact number of worms per well determined after the completion of the experiment using a stereomicroscope. […] Uncoupled oxygen consumption was measured at 5-minute intervals (35 min, 40 min, 45 min, 50 min, 55 min, and 60 min) to permit measuring the mitochondrial function over time."}, "[3]": {"tested_on": "daf-16(mu86) mutant C. elegans", "assay": "Lifespan assay, daf-16 mutant C. elegans", "assay_type": "in vivo", "description": "as §1\ndaf-16 encodes a FOXO transcription factor."}, "liver of C57BL/6J mice": {"tested_on": "liver of C57BL/6J mice", "assay": "Autophagy in liver of mice after oral urolithin A", "assay_type": "in vivo, mouse", "conditions": "oral 55 mg/kg/d in chow, 8 weeks", "description": "To determine the ability of urolithin A to induce autophagy in vivo, healthy 10-week-old C57BL/6J mice were treated with either a standard rodent diet or a diet containing urolithin A mixed with food to reach a dosing of 55 mg/kg/day delivered to the mice. Following 8 weeks of treatment with urolithin A, mice were sacrificed and the liver of each animal was surgically isolated. The isolated livers were then placed in lysis buffer and prepared for western blot analysis.\nProtein expression levels were examined for autophagy related proteins LC3-I and LC3-II (Cell Signaling antibody #4108), p62 (Cell Signalling antibody #5114), AMPKα (Cell Signaling antibody #2603), and p-AMPKα(Cell Signaling antibody #2531). The housekeeping protein, HSP90 (BD Transduction Laboratories antibody #610418) level was measured as a loading control. Each lane in the Western blot represents a protein sample for the liver of a single mouse, to permit observation of the effects aver a number of treated animals."}, "[4]": {"tested_on": "C. elegans strain DA2122 (LGG-1::GFP)", "assay": "Autophagy induction, LGG-1::GFP dots in C. elegans", "assay_type": "in vivo", "conditions": "50 μM from eggs to second day of adulthood; FIGS. 9A-9B", "method": "C. elegans strains were cultured at 20° C. on nematode growth media (NGM) agar plates seeded with OP50 bacteria and containing 50 μM urolithin A or a corresponding concentration of DMSO as a control. The worms were treated from eggs to the second day of the adulthood. The strains used were the DA2122 (adIs2122[lgg-1::GFP+rol-6(su1006)]), which is a transgenic line expressing the LGG-1 protein (homolog of LC3 in human) fused with the green fluorescent protein (GFP). For picture acquisition, worms were immobilized with tetramisole (Sigma) and mounted on 6% agarose pads on glass slides. Images were acquired using Zeiss LSM 700 upright confocal microscope (Carl Zeiss A G, Oberkochen, Germany) from the same part of C. elegans. For each condition multiple worms were observed and imaged with the same initial parameters. Image processing and quantification of autophagic events was performed with the Fiji software."}, "[5]": {"tested_on": "mitochondria in muscle of C. elegans strain SJ4103", "assay": "Mitochondrial GFP reporter in muscle of C. elegans", "assay_type": "in vivo", "conditions": "50 μM from eggs, GFP after one day of adulthood; FIG. 7", "method": "The worms were treated from eggs to the first day of adulthood. The strains used were the SJ4103 (zcIs14[myo-3::GFP(mit)]), which is a stable transgenic line expressing a mitochondrially localized green fluorescent protein (GFP) with a cleavable mitochondrial import signal peptide under the control of the specific body wall muscle promoter myo-3. GFP expression and quantification was carried out according to the protocol previously described. […] Fluorimetric assays were performed using a Victor X4 multilabel plate reader (Perkin-Elmer Life Science). Eighty worms were picked at random (20 worms per well of a black-walled 96-well plate), and each well was read four times and averaged."}, "[6]": {"tested_on": "C. elegans fed vps-34 RNAi", "assay": "Lifespan with RNAi against vps-34", "assay_type": "in vivo", "conditions": "50 μM; vs empty vector; FIG. 10B", "description": "Lifespan tests were performed as described. Mouchiroud L et al. (2011) Aging Cell 10:39-54. Briefly, worms were observed using a Nikon SMZ1500 stereomicroscope (Nikon, Melville, NY, USA). Briefly, 10 L4 worms were transferred on plates containing NGM medium with vehicle (DMSO 0.1%, final concentration) or urolithin A dissolved in DMSO (final concentration 50 μM) and seeded with E. coli RNAi clones as indicated. After 3 days (corresponding to day 0), newly developed 60-100 L4 worms were used per condition, scored and transferred to fresh plates every 3 days starting from day 1 (young adult worms). All lifespan experiments were performed at 20° C.\nSurvival analyses were performed using the Kaplan Meier method and the significance of differences between survival curves calculated using the log rank test. Differences between two groups were assessed using two-tailed t-tests. Analysis of variance, assessed by Bonferroni's multiple comparison test, was used when comparing more than two groups. The statistical software used was GraphPad Prism 5 (GraphPad Software, Inc.) and all p-values <0.05 were considered significant.\nGene silencing was carried out as previously described by using the RNA interference (RNAi) process. Mouchiroud L et al. (2011) Aging Cell 10:39-54. In C. elegans, RNAi is made by feeding. […]"}, "[7]": {"tested_on": "sir-2.1(ok434) mutant C. elegans", "assay": "Lifespan assay, sir-2.1 mutant C. elegans", "assay_type": "in vivo", "description": "as §1\nsir-2.1: sir-2.1 encodes the mammalian homolog of the NAD-dependent deacetylase SIRT1 in C. elegans. SIR-2.1/SIRT1 activity is mediated by NAD^+ level and is well described to be involved in longevity regulation in yeast, C. elegans, and Drosophila in response to caloric restriction."}, "aged C57BL/6J mice": {"tested_on": "aged C57BL/6J mice", "assay": "Grip test in aged mice", "assay_type": "in vivo, mouse", "conditions": "high fat diet, 50 mg/kg/day, 26 weeks, FIG. 22", "description": "To examine the effects of urolithin A treatment on muscle function in aged mammals, 17-month-old C57BL/6J mice were treated with either a high fat rodent diet or a high fat rodent diet containing urolithin A mixed with food to reach a dosing of 50 mg/kg/day delivered to the mice.\nFollowing 26 weeks of treatment with urolithin A, mice were assessed for their neuromuscular function by means of a grip test. Using the grip test, one can measure the forelimb grip strength of mice. Mice were placed on a grid to enable their fore paws grasp the support. To measure the grip strength, mice are pulled backward in the sensor axis until they are no longer able to hold the grid."}, "[8]": {"tested_on": "eat-2(ad465) mutant C. elegans", "assay": "Lifespan assay, eat-2 mutant C. elegans", "assay_type": "in vivo", "description": "as §1\neat-2 encodes a protein involved in pharyngeal pumping."}, "[9]": {"tested_on": "aak-2(ok524) mutant C. elegans", "assay_type": "in vivo", "conditions": "aak-2 (o524); for Lifespan extension compared to control (%): 50 μM UA vs 1% DMSO", "description": "as §1\naak-2/AMPK: aak-2 encodes the mammalian homolog of the AMP-dependent kinase AMPK in C. elegans."}},
  "note": "“Also recorded” adds a separate entry of the source. Read-outs that look alike come from different tables or passages of the source.",
  "data": [
    {"smiles": "O=c1oc2cc(O)ccc2c2ccc(O)cc12", "note": "[Urolithin A, urolithin A]", "values": [
      {"measurement": "Median lifespan", "setting": "[1]; daf-2, 50 μM UA", "result": 48, "unit": "days"},
      {"measurement": "Lifespan extension compared to control (%)", "setting": "[1]; daf-2, 50 μM UA vs 1% DMSO", "result": "+14.2%"},
      {"measurement": "activity of urolithin A on the extension of median lifespan", "setting": "[1]; daf-2 mutant", "result": "completely suppressed"},
      {"measurement": "basal respiration, 10-day-old vs 1-day-old worms", "setting": "[2]; 30 μM, FIG. 8D", "result": "normalizes the respiration rates"},
      {"measurement": "uncoupled (FCCP) respiration, area under the curve", "setting": "[2]; 10-day-old worms, 30 μM urolithin A, 30-minute period, FIGS. 8A-8B", "result": "significantly increased uncoupled respiration"},
      {"measurement": "Median lifespan", "setting": "[3]; 50 μM UA", "result": 23, "unit": "days"},
      {"measurement": "Lifespan extension compared to control (%)", "setting": "[3]; 50 μM UA vs 1% DMSO", "result": "+43.7%"},
      {"measurement": "p62 protein levels", "setting": "liver of C57BL/6J mice", "result": "decreased"},
      {"measurement": "phosphorylated AMPKα / ratio of p-AMPKα/AMPKα", "setting": "liver of C57BL/6J mice; 55 mg/kg/day", "result": "increased levels"},
      {"measurement": "ratio of LC3-II to LC3-I", "setting": "liver of C57BL/6J mice; FIG. 19, 55 mg/kg/day", "result": "increased"},
      {"measurement": "increase in autophagy over control untreated mice based on the ratio of LC3-II/LC3-I", "setting": "liver of C57BL/6J mice; average", "result": "approximately 400%"},
      {"measurement": "number of autophagic events (LGG-1::GFP dots per focal field)", "setting": "[4]", "result": "increases the number of autophagic events"},
      {"measurement": "expression of the mitochondrial GFP reporter (myo-3 promoter)", "setting": "[5]", "result": "striking increase in GFP expression"},
      {"measurement": "lifespan extension by urolithin A under vps-34 RNAi", "setting": "[6]", "result": "suppressed; also recorded: totally suppress the lifespan phenotype"},
      {"measurement": "Median lifespan", "setting": "[7]; sir-2.1(ok434), 50 μM UA", "result": 23, "unit": "days"},
      {"measurement": "Lifespan extension compared to control (%)", "setting": "[7]; sir-2.1(ok434), 50 μM UA vs 1% DMSO", "result": "+9.5%"},
      {"measurement": "activity of urolithin A on the extension of median lifespan", "setting": "[7]; sir-2.1 mutant", "result": "completely suppressed"},
      {"measurement": "forelimb grip strength", "setting": "aged C57BL/6J mice", "result": "greater grip strength"},
      {"measurement": "Median lifespan", "setting": "[8]; 50 μM UA", "result": 37, "unit": "days"},
      {"measurement": "Lifespan extension compared to control (%)", "setting": "[8]; 50 μM UA vs 1% DMSO", "result": "+76.2%"},
      {"measurement": "Median lifespan", "setting": "[9]; 50 μM UA", "result": 18, "unit": "days"},
      {"measurement": "Lifespan extension compared to control (%)", "setting": "[9]", "result": 12.5, "unit": "%"},
      {"measurement": "Lifespan extension compared to control (%)", "setting": "[9]; listed as UA", "result": "+12.5%"}
    ]}
  ]
}
